Experimental data as given in ChEMBL document CHEMBL5126567, “Synthesis of novel immunomodulatory 1,4-disubstituted bis-1,2,3-triazoles by using click chemistry and their intracellular mechanism of action” (Bioorg Med Chem Lett, 2022).
Activity calls are given as the source filed them. The rule behind the calls is not given here.

What was measured:
J774.2 [1] = test: Cytotoxicity against mouse J774.2 cells assessed as cell viability; format: toxicity, cell-based
J774.2 [2] = test: Antiinflammatory activity in LPS-induced mouse J774.2 cells assessed as decrease in TNF-alpha level at 1 to 10 ug/mL measured after 24 hrs by ELISA; format: functional, cell-based; conditions: dose 1-10 µg/ml
J774.2 [3] = test: Antiinflammatory activity in LPS-induced mouse J774.2 cells assessed as decrease in IL6 level at 1 to 10 ug/mL measured after 24 hrs by ELISA; format: functional, cell-based; conditions: dose 1-10 µg/ml
J774.2 [4] = test: Antiinflammatory activity in LPS-induced mouse J774.2 cells assessed as decrease in GMCSF level at 1 to 10 ug/mL measured after 24 hrs by ELISA; format: functional, cell-based; conditions: dose 1-10 µg/ml
J774.2 [5] = test: Inhibition of PI3K/AKT signalling pathway in LPS-induced mouse J774.2 cells assessed as decrease in phosphorylated PI3K level at 10 ug/mL after 24 hrs by flow cytometry; format: cell-based; conditions: dose 10.0 µg/ml

Compound	Activity (J774.2 [1])	Activity (J774.2 [2])	Activity (J774.2 [3])	Activity (J774.2 [4])	inhibition (J774.2 [5])
O=C(Cn1cc(C2CC2)nn1)Nc1ccccc1NC(=O)Cn1cc(C2CC2)nn1	Non-Toxic	Active	Active	Active	Active
CCCC(C)c1cn(CC(=O)Nc2ccccc2NC(=O)Cn2cc(C(C)CCC)nn2)nn1 (stereo not drawn)	Non-Toxic	Active	Active	Active	Active
CCOC(=O)c1cn(CC(=O)Nc2ccccc2NC(=O)Cn2cc(C(=O)OCC)nn2)nn1	Non-Toxic	Active	Active	Active	
O=C(Cn1cc(C2CCCC2)nn1)Nc1ccccc1NC(=O)Cn1cc(C2CCCC2)nn1	Non-Toxic	Active	Active	Active	Active
O=C(Cn1cc(CC2CCCCC2)nn1)Nc1ccccc1NC(=O)Cn1cc(CC2CCCCC2)nn1	Non-Toxic	Active	Active	Active	Active
O=C(Cn1cc(-c2ccccc2)nn1)Nc1ccccc1NC(=O)Cn1cc(-c2ccccc2)nn1	Non-Toxic	Active	Active	Active	
